{"source": "ChEMBL document CHEMBL1136614", "about": "“Hydroporphyrins as tumour photosensitizers: synthesis and photophysical studies of 2,3-dihydro-5,15-di(3,5-dihydroxyphenyl) porphyrin” (2003)", "key": {"C6": {"system": "C6", "assay": "Survival rates when cells were incubated for 5 hr without light", "type": "functional, Rattus norvegicus"}, "HT-29": {"system": "HT-29", "assay": "Compound was tested for in vivo photo-sensitizing activity on human colon adenocarcinoma cell (HT-29)", "type": "functional"}, "[1]": {"assay": "Dose required to induce 90% death rate for C6 glioma cells from rats", "type": "functional, Rattus norvegicus"}}}
{"smiles": "Oc1cc(O)cc(-c2c3nc(cc4ccc([nH]4)c(-c4cc(O)cc(O)c4)c4ccc(cc5nc2CC5)[nH]4)C=C3)c1", "values": [{"measurement": "Survival", "setting": "C6", "result": 100, "unit": "%"}, {"measurement": "Inhibition", "setting": "HT-29", "result": 40, "unit": "%"}, {"measurement": "LD90", "setting": "[1]", "result": 4.8, "unit": "µg/mL"}]}
